Assay results as given in ChEMBL document CHEMBL5696442, “Discovery of type II inhibitors of TGFβ-activated kinase 1 (TAK1) and mitogen-activated protein kinase kinase kinase kinase 2 (MAP4K2)” (J Med Chem, 2015).
Active and inactive are the calls of the source. No cut-off for these calls is given here.

How the values were obtained:
[1] = molecular target: 5'-AMP-activated protein kinase catalytic subunit alpha-1 (Homo sapiens) (UniProt Q13131); assay: Inhibition of AMPKa1 Lys2 labeling site in human Huh-7 cell lysate at 1 uM by KiNativ Profiling analysis relative to control; format: subcellular
Sequence of 5'-AMP-activated protein kinase catalytic subunit alpha-1 (Homo sapiens) (Q13131 whole entry, looked up): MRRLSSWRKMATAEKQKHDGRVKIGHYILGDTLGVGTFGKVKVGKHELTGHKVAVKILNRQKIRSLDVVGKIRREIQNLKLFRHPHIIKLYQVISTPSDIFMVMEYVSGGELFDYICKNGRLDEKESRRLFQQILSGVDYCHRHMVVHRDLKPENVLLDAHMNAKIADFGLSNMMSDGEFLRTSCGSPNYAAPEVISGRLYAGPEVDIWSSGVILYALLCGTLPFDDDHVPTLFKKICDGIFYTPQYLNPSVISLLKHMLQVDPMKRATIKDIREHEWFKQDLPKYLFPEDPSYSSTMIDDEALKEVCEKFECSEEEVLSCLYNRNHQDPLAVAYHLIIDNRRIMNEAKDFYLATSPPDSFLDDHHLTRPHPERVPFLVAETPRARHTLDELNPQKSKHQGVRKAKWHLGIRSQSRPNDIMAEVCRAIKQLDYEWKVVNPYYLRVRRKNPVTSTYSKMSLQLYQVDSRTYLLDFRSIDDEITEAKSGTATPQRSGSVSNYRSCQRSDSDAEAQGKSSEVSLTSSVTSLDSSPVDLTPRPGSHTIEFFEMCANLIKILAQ

[2] = molecular target: Serine/threonine-protein kinase Nek4 (Homo sapiens) (UniProt P51957); assay: Inhibition of NEK4 Lys2 labeling site in human Huh-7 cell lysate at 1 uM by KiNativ Profiling analysis relative to control; format: subcellular
Sequence of Serine/threonine-protein kinase Nek4 (Homo sapiens) (P51957 whole entry, looked up): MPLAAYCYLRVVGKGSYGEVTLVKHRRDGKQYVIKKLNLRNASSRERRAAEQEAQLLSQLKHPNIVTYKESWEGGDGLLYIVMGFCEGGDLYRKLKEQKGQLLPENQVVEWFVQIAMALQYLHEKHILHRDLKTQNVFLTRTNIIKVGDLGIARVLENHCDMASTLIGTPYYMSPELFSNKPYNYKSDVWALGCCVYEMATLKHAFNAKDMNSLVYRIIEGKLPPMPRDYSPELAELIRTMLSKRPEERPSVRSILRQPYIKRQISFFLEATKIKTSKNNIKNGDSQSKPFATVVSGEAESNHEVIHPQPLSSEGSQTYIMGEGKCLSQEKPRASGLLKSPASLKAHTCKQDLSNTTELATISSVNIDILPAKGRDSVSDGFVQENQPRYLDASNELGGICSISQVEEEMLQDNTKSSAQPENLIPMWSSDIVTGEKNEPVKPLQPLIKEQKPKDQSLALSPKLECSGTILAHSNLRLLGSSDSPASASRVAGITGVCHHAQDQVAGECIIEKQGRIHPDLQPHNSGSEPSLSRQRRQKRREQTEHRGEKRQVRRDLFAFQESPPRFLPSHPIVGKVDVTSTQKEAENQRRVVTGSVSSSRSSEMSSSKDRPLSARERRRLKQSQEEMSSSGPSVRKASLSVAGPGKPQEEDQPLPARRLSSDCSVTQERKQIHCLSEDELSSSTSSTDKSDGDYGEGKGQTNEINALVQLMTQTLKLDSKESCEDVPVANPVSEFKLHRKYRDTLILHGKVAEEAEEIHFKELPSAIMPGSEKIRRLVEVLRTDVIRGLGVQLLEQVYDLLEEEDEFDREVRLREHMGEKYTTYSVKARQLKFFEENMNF

[3] = molecular target: Serine/threonine-protein kinase 38 (Homo sapiens) (UniProt Q15208); assay: Inhibition of NDR1 ACT labeling site in human Huh-7 cell lysate at 1 uM by KiNativ Profiling analysis relative to control; format: subcellular
[4] = molecular target: Protein kinase C alpha type (Homo sapiens) (UniProt P17252); assay: Inhibition of PKCa Lys2 labeling site in human Huh-7 cell lysate at 1 uM by KiNativ Profiling analysis relative to control; format: subcellular
[5] = molecular target: T1, Serine/threonine-protein kinase D3 (Homo sapiens) (UniProt O94806); assay: Inhibition of PKD3 Lys2 labeling site in human Huh-7 cell lysate at 1 uM by KiNativ Profiling analysis relative to control; format: subcellular
T1 sequence (whole entry): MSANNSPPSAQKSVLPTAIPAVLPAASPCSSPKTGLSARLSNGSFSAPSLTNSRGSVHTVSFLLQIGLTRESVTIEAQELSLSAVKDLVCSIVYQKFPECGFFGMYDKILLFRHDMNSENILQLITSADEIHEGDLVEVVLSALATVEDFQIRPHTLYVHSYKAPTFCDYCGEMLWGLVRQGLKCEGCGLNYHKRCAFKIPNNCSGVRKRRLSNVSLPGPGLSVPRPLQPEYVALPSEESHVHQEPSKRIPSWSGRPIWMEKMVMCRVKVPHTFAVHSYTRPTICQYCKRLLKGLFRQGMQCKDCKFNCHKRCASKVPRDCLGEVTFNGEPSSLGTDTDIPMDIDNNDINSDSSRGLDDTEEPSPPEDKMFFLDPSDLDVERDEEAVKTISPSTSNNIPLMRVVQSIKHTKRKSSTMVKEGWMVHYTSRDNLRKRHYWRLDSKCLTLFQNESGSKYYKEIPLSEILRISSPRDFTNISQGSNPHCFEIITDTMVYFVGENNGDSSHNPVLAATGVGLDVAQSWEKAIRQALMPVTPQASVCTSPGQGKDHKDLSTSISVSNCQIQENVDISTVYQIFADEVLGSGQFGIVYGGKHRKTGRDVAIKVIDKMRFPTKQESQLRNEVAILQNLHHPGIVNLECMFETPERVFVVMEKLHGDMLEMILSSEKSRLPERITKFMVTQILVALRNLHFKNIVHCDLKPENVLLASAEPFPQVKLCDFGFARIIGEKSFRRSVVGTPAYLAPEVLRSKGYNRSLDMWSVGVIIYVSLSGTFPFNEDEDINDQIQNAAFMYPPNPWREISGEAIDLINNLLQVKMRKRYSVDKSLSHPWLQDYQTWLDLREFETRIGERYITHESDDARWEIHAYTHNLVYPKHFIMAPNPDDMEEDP

[6] = molecular target: Non-receptor tyrosine-protein kinase TYK2 (Homo sapiens) (UniProt P29597); assay: Inhibition of TYK2 domain2 ACT labeling site in human A-375 cells at 0.05 uM by KiNativ Profiling analysis relative to control; format: cell-based
[7] = molecular target: Serine/threonine-protein kinase 32C (Homo sapiens) (UniProt Q86UX6); assay: Inhibition of YANK3 K2 labeling site in human Huh-7 cells at 10 uM by KiNativ Profiling analysis relative to control; format: cell-based
Sequence of Serine/threonine-protein kinase 32C (Homo sapiens) (Q86UX6 whole entry): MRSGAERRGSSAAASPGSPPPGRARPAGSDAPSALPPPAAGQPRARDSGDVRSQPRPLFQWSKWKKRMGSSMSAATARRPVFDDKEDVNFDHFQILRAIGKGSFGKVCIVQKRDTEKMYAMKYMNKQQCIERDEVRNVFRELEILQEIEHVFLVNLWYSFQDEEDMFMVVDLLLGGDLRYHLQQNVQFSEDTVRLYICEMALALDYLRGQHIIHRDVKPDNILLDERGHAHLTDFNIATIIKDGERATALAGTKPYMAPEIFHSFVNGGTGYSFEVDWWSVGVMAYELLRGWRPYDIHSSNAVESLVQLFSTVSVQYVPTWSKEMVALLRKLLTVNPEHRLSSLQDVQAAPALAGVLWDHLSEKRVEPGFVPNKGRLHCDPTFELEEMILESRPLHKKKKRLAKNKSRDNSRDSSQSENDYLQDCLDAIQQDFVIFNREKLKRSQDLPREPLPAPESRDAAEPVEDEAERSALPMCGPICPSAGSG

[8] = molecular target: Vascular endothelial growth factor receptor 2 (Homo sapiens) (UniProt P35968); assay: Inhibition of VEGFR2 (unknown origin) at 10 uM by Ambit Kinomescan binding assay relative to control; values are per cent of control
[9] = molecular target: TRAF2 and NCK-interacting protein kinase (Homo sapiens) (UniProt Q9UKE5); assay: Inhibition of TNIK K1 labeling site in human Huh-7 cells at 1 uM by KiNativ Profiling analysis relative to control; format: cell-based
[10] = molecular target: Serine/threonine-protein kinase 32C (Homo sapiens) (UniProt Q86UX6); assay: Inhibition of YANK3 (unknown origin) at 10 uM by Ambit Kinomescan binding assay
[11] = Inhibition of […] ATP labeling site in human Huh-7 cells at 10 uM by KiNativ Profiling analysis relative to control; conditions: condition cancer
[12] = molecular target: Serine/threonine-protein kinase 10 (Homo sapiens) (UniProt O94804); assay: Inhibition of LOK Lys1 labeling site in human A-375 cells at 5 uM by KiNativ Profiling analysis relative to control; format: cell-based
[13] = molecular target: T2, Serine/threonine-protein kinase ULK3 (Homo sapiens) (UniProt Q6PHR2); assay: Inhibition of ULK3 (unknown origin) at 10 uM by Ambit Kinomescan binding assay relative to control; values are per cent of control
T2 sequence (whole entry): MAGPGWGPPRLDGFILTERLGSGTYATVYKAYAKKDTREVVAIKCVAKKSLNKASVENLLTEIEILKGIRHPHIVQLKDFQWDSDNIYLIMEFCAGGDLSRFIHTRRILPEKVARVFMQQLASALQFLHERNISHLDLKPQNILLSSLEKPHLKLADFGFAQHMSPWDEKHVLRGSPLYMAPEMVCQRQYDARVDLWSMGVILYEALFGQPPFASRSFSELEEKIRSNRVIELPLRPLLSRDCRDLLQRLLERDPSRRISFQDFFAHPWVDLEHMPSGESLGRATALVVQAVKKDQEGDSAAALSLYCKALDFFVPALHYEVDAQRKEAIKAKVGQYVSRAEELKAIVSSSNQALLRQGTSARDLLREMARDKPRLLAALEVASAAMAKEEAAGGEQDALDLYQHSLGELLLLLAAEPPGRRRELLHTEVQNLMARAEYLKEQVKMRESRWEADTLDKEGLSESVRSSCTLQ

[14] = molecular target: Hepatocyte growth factor receptor (Homo sapiens) (UniProt P08581); assay: Inhibition of MET ACT labeling site in human Huh-7 cells at 1 uM by KiNativ Profiling analysis relative to control; format: cell-based
[15] = molecular target: Homeodomain-interacting protein kinase 1 (Homo sapiens) (UniProt Q86Z02); assay: Inhibition of HIPK1 (unknown origin) at 1 uM by Ambit Kinomescan binding assay relative to control; values are per cent of control
Sequence of Homeodomain-interacting protein kinase 1 (Homo sapiens) (Q86Z02 whole entry, looked up): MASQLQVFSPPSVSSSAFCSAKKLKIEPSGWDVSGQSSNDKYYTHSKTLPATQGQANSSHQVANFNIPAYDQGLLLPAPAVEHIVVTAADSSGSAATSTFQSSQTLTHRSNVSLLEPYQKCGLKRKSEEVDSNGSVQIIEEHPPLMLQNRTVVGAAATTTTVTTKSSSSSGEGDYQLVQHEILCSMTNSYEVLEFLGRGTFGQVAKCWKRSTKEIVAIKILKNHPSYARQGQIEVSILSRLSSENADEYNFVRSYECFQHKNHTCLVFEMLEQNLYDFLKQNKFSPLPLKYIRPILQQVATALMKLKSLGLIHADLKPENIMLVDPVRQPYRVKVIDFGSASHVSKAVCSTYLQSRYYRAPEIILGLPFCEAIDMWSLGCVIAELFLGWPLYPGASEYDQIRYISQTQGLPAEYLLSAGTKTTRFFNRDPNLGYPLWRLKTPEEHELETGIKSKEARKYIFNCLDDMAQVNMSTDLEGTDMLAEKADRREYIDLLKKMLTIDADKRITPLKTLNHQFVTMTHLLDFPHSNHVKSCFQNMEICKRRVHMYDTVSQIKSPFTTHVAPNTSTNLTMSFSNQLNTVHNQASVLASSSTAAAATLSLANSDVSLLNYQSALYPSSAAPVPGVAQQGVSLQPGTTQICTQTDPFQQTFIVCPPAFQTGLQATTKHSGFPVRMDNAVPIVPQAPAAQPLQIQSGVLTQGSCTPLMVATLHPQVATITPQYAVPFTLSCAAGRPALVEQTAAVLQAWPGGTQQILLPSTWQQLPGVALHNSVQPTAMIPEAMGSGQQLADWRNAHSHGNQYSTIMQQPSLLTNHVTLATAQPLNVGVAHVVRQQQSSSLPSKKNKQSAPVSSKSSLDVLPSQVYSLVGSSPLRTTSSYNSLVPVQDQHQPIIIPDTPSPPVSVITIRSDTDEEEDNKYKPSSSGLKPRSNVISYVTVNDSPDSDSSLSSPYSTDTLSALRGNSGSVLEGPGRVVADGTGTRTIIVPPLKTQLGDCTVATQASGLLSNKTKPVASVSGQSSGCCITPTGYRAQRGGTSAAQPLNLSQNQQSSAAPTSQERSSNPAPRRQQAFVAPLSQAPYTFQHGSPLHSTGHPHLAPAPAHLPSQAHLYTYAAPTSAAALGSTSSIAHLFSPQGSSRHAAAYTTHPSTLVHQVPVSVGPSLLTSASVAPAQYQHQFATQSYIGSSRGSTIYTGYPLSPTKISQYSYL

[16] = molecular target: Mitogen-activated protein kinase 9 (Homo sapiens, UniProt P45984); assay: Inhibition of JNK2 (unknown origin) at 1 uM by Ambit Kinomescan binding assay relative to control
Sequence of Mitogen-activated protein kinase 9 (P45984 whole entry, looked up): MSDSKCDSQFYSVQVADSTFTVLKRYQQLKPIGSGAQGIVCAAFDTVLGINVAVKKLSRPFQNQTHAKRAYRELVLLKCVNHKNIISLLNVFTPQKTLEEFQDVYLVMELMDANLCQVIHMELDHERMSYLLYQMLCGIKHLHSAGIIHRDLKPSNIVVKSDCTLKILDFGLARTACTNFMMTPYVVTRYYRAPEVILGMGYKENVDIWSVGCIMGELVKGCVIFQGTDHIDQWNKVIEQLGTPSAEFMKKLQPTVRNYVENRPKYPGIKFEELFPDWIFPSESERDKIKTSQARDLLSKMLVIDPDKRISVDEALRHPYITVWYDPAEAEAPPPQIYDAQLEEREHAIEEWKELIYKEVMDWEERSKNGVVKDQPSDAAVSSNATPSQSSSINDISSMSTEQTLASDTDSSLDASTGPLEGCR

[17] = molecular target: Epidermal growth factor receptor (Homo sapiens) (UniProt P00533); assay: Inhibition of EGFR (unknown origin) at 1 uM by Ambit Kinomescan binding assay relative to control
Sequence of Epidermal growth factor receptor (Homo sapiens) (P00533 whole entry, the tested form may be a part): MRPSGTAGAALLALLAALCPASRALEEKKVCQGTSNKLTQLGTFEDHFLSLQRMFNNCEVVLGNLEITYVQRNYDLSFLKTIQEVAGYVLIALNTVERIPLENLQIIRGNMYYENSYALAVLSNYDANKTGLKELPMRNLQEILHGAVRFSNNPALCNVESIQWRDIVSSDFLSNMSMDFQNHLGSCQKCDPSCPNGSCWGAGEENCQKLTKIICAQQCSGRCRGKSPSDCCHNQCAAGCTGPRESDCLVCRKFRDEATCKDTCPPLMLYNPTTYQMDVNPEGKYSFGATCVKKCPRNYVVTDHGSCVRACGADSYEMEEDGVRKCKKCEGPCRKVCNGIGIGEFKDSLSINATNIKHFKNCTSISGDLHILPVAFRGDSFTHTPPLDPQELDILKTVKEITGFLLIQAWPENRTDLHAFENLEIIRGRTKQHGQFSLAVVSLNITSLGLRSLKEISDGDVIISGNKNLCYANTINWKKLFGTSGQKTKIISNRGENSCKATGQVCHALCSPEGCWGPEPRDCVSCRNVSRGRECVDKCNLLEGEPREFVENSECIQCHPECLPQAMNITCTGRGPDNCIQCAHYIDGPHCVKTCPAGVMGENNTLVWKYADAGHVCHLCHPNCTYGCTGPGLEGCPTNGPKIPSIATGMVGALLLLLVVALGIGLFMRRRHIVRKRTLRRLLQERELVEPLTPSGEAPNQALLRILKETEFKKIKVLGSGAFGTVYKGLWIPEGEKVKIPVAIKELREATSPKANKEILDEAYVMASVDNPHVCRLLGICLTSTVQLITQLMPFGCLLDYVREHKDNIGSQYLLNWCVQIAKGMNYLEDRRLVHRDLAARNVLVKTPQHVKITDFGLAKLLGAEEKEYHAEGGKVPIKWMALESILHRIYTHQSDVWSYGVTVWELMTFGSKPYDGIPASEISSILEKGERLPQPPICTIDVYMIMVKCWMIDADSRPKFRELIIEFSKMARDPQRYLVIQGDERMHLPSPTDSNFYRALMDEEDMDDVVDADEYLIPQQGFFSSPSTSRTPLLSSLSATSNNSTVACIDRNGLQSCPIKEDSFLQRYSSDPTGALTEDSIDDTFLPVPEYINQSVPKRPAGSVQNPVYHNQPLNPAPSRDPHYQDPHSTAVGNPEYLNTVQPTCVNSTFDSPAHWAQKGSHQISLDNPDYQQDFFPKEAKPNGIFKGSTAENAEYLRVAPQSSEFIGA

[18] = molecular target: Ribosomal protein S6 kinase alpha-4 (Homo sapiens) (UniProt O75676); assay: Inhibition of N-terminal RPS6KA4 kinase domain 1 (unknown origin) at 1 uM by Ambit Kinomescan binding assay relative to control

With `CNc1cc(Oc2cc(C(=O)Nc3cc(N4CCN(C)CC4)cc(C(F)(F)F)c3)ccc2C)ncn1` as the compound, how does the inhibition [1] read?
The inhibition was 0.5%.

And the inhibition [2]?
Its inhibition is -2.2%.

And the inhibition [3]?
The inhibition was 4.2%.

What about the inhibition [4] of the same compound?
The inhibition was -1.2%.

What about the inhibition [5] of the same compound?
Its inhibition is 12.4%.

Which inhibition [6] does the source give for `CCN1CCN(Cc2ccc(NC(=O)c3ccc(C)c(Oc4ccnc5[nH]ccc45)c3)cc2C(F)(F)F)CC1` here?
Its inhibition is -4.4%.

And the inhibition [7]?
The inhibition was 2.5%.

And the residual activity [8]?
Its residual activity is 1.5%.

What about the inhibition [9] of the same compound?
The inhibition was 35.6%.

And the inhibition [10]?
The inhibition was “inactive”.

And the inhibition at 10 µM [11]?
The inhibition at 10 µM was -5.1%.

What about the inhibition [12] of the same compound?
Its inhibition is 82.3%.

And the residual activity [13]?
Its residual activity is 0.1%.

And the inhibition [14]?
The inhibition was 15.5%.

With `CCN1CCN(Cc2ccc(NC(=O)c3ccc(C)c(/C=C/c4cnc5[nH]ccc5c4OC)c3)cc2C(F)(F)F)CC1` as the compound, how does the residual activity [15] read?
Its residual activity is 74%.

What about the inhibition [16] of the same compound?
The inhibition was 6.6%.

And the inhibition [17]?
The inhibition was 7.6%.

And the inhibition [18]?
Its inhibition is 72%.
